According to patent US10981926B2 (Janssen Pharmaceutica NV, priority 2016, dated 2021):

Experiments:
[1] = target: T1, F876L mutant Androgen Receptor (AR-F876L) (Homo sapiens (Human), UniProt P10275, F877L); assay: LNCaP-AR-F876L ANT reporter assay (antagonist mode); format: cell-based; settings: for IC50: read-out: LNCaP-AR-F876L ANT pIC50 (converted); for Emax: read-out: LNCaP-AR-F876L ANT MAX % Inh
[2] = target: T2, wild-type Androgen Receptor (AR-wt) (Homo sapiens (Human), UniProt P10275); assay: LNCaP-AR-wt AG reporter assay (agonist mode); format: cell-based; settings: for EC50: read-out: LNCaP-AR-wt AG pEC50 (converted); for Emax: read-out: LNCaP-AR-wt AG MAX % Stim
T2 sequence (P10275 whole entry): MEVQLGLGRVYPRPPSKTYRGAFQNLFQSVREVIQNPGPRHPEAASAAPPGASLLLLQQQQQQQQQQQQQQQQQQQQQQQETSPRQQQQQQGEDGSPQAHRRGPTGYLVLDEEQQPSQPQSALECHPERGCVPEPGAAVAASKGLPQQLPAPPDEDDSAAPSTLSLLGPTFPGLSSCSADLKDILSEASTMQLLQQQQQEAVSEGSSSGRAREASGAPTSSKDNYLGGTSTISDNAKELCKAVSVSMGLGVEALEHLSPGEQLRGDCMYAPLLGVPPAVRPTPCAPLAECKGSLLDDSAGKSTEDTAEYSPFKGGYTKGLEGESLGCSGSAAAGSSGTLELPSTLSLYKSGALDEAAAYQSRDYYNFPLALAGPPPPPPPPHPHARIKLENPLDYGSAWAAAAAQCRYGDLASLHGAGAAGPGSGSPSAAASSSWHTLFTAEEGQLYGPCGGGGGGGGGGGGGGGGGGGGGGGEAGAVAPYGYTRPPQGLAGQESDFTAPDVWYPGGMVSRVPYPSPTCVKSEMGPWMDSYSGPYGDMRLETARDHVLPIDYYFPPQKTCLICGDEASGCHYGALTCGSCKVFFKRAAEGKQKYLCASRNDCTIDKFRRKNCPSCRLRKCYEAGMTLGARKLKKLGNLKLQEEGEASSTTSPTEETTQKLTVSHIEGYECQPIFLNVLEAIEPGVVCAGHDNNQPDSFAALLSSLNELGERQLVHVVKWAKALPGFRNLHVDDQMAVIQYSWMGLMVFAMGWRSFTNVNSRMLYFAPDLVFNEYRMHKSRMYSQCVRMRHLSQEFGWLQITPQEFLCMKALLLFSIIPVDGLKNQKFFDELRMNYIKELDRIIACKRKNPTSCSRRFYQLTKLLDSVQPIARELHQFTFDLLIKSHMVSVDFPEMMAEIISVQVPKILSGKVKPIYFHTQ

[3] = target: T1, F876L mutant Androgen Receptor (AR-F876L); assay: LNCaP-AR-F876L AG reporter assay (agonist mode); format: cell-based; settings: for EC50: read-out: LNCaP-AR-F876L AG pEC50 (converted); for Emax: read-out: LNCaP-AR-F876L AG MAX % Stim
[4] = test system: rGABA-gated Cl− channel; assay: GABA-Gated Cl Channel Antagonist Radioligand Binding Assay; parameters: species or system rat; settings: 10 μM single point, [35S]-TBPS, cerebral cortex membrane homogenates
Procedure: GABA-gated C1 Chanel assays were performed at CEREP according to the following method. Membrane homogenates of cerebral cortex (120 μg protein) were incubated for 120 min at 22° C. with 3 nM […] in the absence or presence of the test compound in a buffer containing 50 mM Na2HPO4/KH2PO4 (pH 7.4) and 500 mM NaCl. Nonspecific binding was determined in the presence of 20 μM picrotoxinin. Following incubation, the samples were filtered rapidly under vacuum through glass fiber filters (GF/B, Packard) presoaked with 0.3% PEI and rinsed several times with ice-cold 50 mM Tris-HCl using a 96-sample cell harvester (Unifilter, Packard). The filters were dried then counted for radioactivity in a scintillation counter (Topcount, Packard) using a scintillation cocktail (Microscint 0, Packard). The results are expressed as a percent inhibition of the control radio ligand specific binding. The standard reference compound is picrotoxinin, which was tested in each experiment at several concentrations to obtain a competition curve from which its IC50 was calculated. In this assay, the following representative compounds disclosed herein had recorded activities at a 10 μM single point concentration in the GABA-gated Cl— Channel Binding Assay.

[5] = target: T2, wild-type Androgen Receptor (AR-wt); assay: LNCaP-AR-wt ANT reporter assay (antagonist mode); format: cell-based; settings: for IC50: read-out: LNCaP-AR-wt ANT pIC50 (converted); for Emax: read-out: LNCaP-AR-wt ANT MAX % Inh
[6] = antagonist mode, pIC50 = −Log10(IC50 in Molar)
[7] = maximum % inhibition of R1881 control response over the tested concentration range
[8] = agonist mode, pEC50 = −Log10(EC50 in Molar)
[9] = maximum % stimulation (agonist response) over the tested concentration range

T1 sequence (P10275 whole entry F877L): as the sequence (P10275 whole entry) above, with F877L counted along it

Row | Compound | LNCaP-AR-F876L ANT pIC50 [1, 6] | LNCaP-AR-F876L ANT MAX % Inh [1, 7] [%] | LNCaP-AR-wt AG pEC50 [2, 8] | LNCaP-AR-wt AG MAX % Stim [2, 9] [%] | LNCaP-AR-F876L AG pEC50 [3, 8] | LNCaP-AR-F876L AG MAX % Stim [3, 9] [%] | rGABA-gated Cl− channel % inh @10 μM [4] [%] | LNCaP-AR-wt ANT pIC50 [5, 6] | LNCaP-AR-wt ANT MAX % Inh [5, 7] [%] | IC50 [1, 6] [µM] | Emax [1, 7] [%] | EC50 [2, 8] [µM] | Emax [2, 9] [%] | EC50 [3, 8] [µM] | Emax [3, 9] [%] | IC50 [5, 6] [µM] | Emax [5, 7] [%]
1 | 3-chloro-5-[8-[2-(1-methyl-4-piperidyl)indazol-5-yl]-5-oxo-7-thioxo-6,8-diazaspiro[3.4]octan-6-yl]pyridine-2-carbonitrile [Cpd 181] | 6.80 | 101.9 | <4.82 | 1.9 | <4.82 | 0.3 | 26.0 | 6.47 | 96.8 | – | – | – | – | – | – | – | –
2 | CN1CC[C@H](Oc2ccc(N3C(=S)N(c4cnc(C#N)c(C(F)(F)F)c4)C(=O)C34CCC4)cc2)[C@@H](F)C1 (racemic) [Cpd 92, 5-[8-[(3SR, 4SR)-4-[(3-fluoro-1-methyl-4-piperidyl)oxy]phenyl]-5-oxo-7-thioxo-6,8-diazaspiro[3.4]octan-6-yl]-3-(trifluoromethyl)pyridine-2-carbonitrile] | – | – | – | – | – | – | 73.4 | – | – | 0.0603 | 98.2 | > 15.1 | 0.3 | > 15.1 | 0.5 | 0.0776 | 101
3 | N#Cc1ncc(N2C(=O)C3(CCC3)N(c3ccc(O[C@H]4CCNC[C@@H]4F)cc3)C2=S)cc1C(F)(F)F (racemic) [Cpd 95, 5-[8-[(3SR, 4SR)-4-[(3-fluoro-4-piperidyl)oxy]phenyl]-5-oxo-7-thioxo-6,8-diazaspiro[3.4]octan-6-yl]-3-(trifluoromethyl)pyridine-2-carbonitrile] | – | – | – | – | – | – | 26.5 | – | – | 0.0447 | 99.7 | > 15.1 | 0.1 | > 15.1 | 0.3 | 0.112 | 101
4 | N#Cc1ncc(N2C(=O)C3(CCC3)N(c3ccc(O[C@H]4CCNC[C@H]4F)cc3)C2=S)cc1C(F)(F)F (racemic) [Cpd 96, 5-[8-(3RS, 4SR) [4-[(3-fluoro-4-piperidyl)oxy]phenyl]-5-oxo-7-thioxo-6,8-diazaspiro[3.4]octan-6-yl]-3-(trifluoromethyl)pyridine-2-carbonitrile] | – | – | – | – | – | – | 26.5 | – | – | 0.0741 | 99.9 | > 15.1 | 0.9 | > 15.1 | 0.4 | 0.126 | 100
5 | N#Cc1ncc(N2C(=O)C3(CCC3)N(c3ccc(O[C@@H]4CCN[C@H](C(F)(F)F)C4)cc3)C2=S)cc1C(F)(F)F (racemic) [Cpd 101, 5-[5-oxo-7-thioxo-8-[4-[[(2SR,4RS)-2-(trifluoromethyl)-4-piperidyl]oxy]phenyl]-6,8-diazaspiro[3.4]octan-6-yl]-3-(trifluoromethyl)pyridine-2-carbonitrile] | – | – | – | – | – | – | 83.9 | – | – | 0.123 | 98.3 | > 15.1 | 0.3 | > 15.1 | 0.7 | 0.155 | 102
6 | CN1CC[C@H](Oc2ccc(N3C(=S)N(c4cnc(C#N)c(C(F)(F)F)c4)C(=O)C34CCC4)cc2)[C@H](F)C1 (racemic) [Cpd 102] | – | – | – | – | – | – | 52.1 | – | – | 0.049 | 99.6 | > 15.1 | 0.4 | > 15.1 | 0.3 | 0.0794 | 99.7
